From ChEMBL document CHEMBL5584347, “Development of Nitric Oxide Releasing Oxoisoaporphines with Antidepressant Activities by Simultaneously Regulating MAO-A and SERT” (J Med Chem, 2024)
Active and inactive are the calls of the source. The calls are words filed in the database; no cut-off is given here.

Tests used:
Danio rerio [1] = experiment: Antidepressant activity in reserpine-induced depressive zebrafish model assessed as reduction in immobility time at 0.5 to 1 uM preadministered with reserpine for 40 mins followed by compound administration and measured after 7 days by open field test; type: functional, organism-based; settings: dose 0.5-1 µM, time 7.0 day
Mus musculus [2] = experiment: Antidepressant activity in reserpine induced depressive mouse model assessed as 5-HT level in brain at 10 mg/kg preadministered with reserpine for 3 days followed by compound addition from day 4 to 10 by LC-MS analysis (reference value: 186.46 ng/ml); type: functional; settings: time 7 day
[3] = Toxicity in C57 mouse assessed as effect on spleen morphology at 5 to 10 mg/kg administered continuously for 2 weeks by H and E staining based analysis; type: organism-based; settings: in vivo, 336 h, dose 5-10 mg/kg
[4] = Toxicity in C57 mouse assessed as effect on kidney pathology at 5 to 10 mg/kg administered continuously for 2 weeks by H and E staining based analysis; type: organism-based; settings: in vivo, 336 h, dose 5-10 mg/kg
Danio rerio [5] = experiment: Antidepressant activity in reserpine-induced depressive zebrafish model assessed as increase in speed of movement at 0.5 to 1 uM preadministered with reserpine for 40 mins followed by compound administration and measured after 7 days by novel tank test; type: functional, organism-based; settings: dose 0.5-1 µM, time 7.0 day
PC-12 [6] = experiment: Neuroprotective activity against corticosterone-induced cell injury in rat PC-12 cells assessed as increase in nitric oxide content at 0.2 uM by absorbance based assay; type: functional
Mus musculus [7] = experiment: Upregulation of 5-HT level in mouse at 10 mg/kg; type: functional, organism-based
[8] = Toxicity in C57 mouse assessed as necrosis in heart at 5 to 10 mg/kg administered continuously for 2 weeks by H and E staining based analysis; type: organism-based; settings: in vivo, 336 h, dose 5-10 mg/kg
[9] = Toxicity in C57 mouse assessed as effect on liver morphology at 5 to 10 mg/kg administered continuously for 2 weeks by H and E staining based analysis; type: organism-based; settings: in vivo, 336 h, dose 5-10 mg/kg
[10] = Toxicity in zebrafish embryo assessed as morphological changes at 0.1 to 10 uM administered with compound starting from 6 hours fertilization and measured at 48 to 120 hours post fertilization; set-up: species or system Danio rerio; settings: in vivo, dose lower 0.1 µM, time lower 42 hrs, dose upper 10 µM, time upper 114 hrs
Mus musculus [11] = experiment: Antidepressant activity in chronic unpredictable mild stress induced depressive C57 mouse model assessed as increase in movement at 5 to 10 mg/kg administered continuously for 2 weeks post 5 weeks of chronic unpredictable mild stress by open field test; type: functional, organism-based; settings: dose 5-10 mg/kg
[12] = Toxicity in C57 mouse assessed as effect on heart size at 5 to 10 mg/kg administered continuously for 2 weeks by H and E staining based analysis; type: organism-based; settings: in vivo, 336 h, dose 5-10 mg/kg
Mus musculus [13] = experiment: (§1) Antidepressant activity in chronic unpredictable mild stress induced depressive C57 mouse model assessed as reduction in MAO-A activity in brain at 5 to 10 mg/kg administered continuously for 2 weeks post 5 weeks of chronic unpredictable mild stress by colorimetric analysis; type: functional, organism-based; settings: dose 5-10 mg/kg
[14] = Toxicity in C57 mouse assessed as effect in spleen pathology at 5 to 10 mg/kg administered continuously for 2 weeks by H and E staining based analysis; type: organism-based; settings: in vivo, 336 h, dose 5-10 mg/kg
[15] = Toxicity in C57 mouse assessed as effect on lung structure at 5 to 10 mg/kg administered continuously for 2 weeks by H and E staining based analysis; type: organism-based; settings: in vivo, 336 h, dose 5-10 mg/kg
[16] = Toxicity in C57 mouse assessed as effect on liver pathology at 5 to 10 mg/kg administered continuously for 2 weeks by H and E staining based analysis; type: organism-based; settings: in vivo, 336 h, dose 5-10 mg/kg
[17] = Cytotoxicity against rat PC-12 cells incubated for 24 hrs by MTT assay; type: toxicity, cell-based
Mus musculus [18] = experiment: Antidepressant activity in chronic unpredictable mild stress induced depressive C57 mouse model assessed as reduction in resting time at 5 to 10 mg/kg administered continuously for 2 weeks post 5 weeks of chronic unpredictable mild stress by forced swimming test; type: functional, organism-based; settings: dose 5-10 mg/kg
Mus musculus [19] = experiment: Antidepressant activity in chronic unpredictable mild stress induced depressive C57 mouse model assessed as reduction in fecal count at 5 to 10 mg/kg administered continuously for 2 weeks post 5 weeks of chronic unpredictable mild stress; type: functional, organism-based; settings: dose 5-10 mg/kg
Danio rerio [20] = experiment: Antidepressant activity in reserpine-induced depressive zebrafish model assessed as increase in total distance traveled at 0.5 to 1 uM preadministered with reserpine for 40 mins followed by compound administration and measured after 7 days by novel tank test; type: functional, organism-based; settings: dose 0.5-1 µM, time 7.0 day
Mus musculus [21] = experiment: Antidepressant activity in chronic unpredictable mild stress induced depressive C57 mouse model assessed as reduction in resting time at 5 to 10 mg/kg administered continuously for 2 weeks post 5 weeks of chronic unpredictable mild stress by tail suspension test; type: functional, organism-based; settings: dose 5-10 mg/kg
[22] = Toxicity in C57 mouse assessed as effect on heart morphology at 5 to 10 mg/kg administered continuously for 2 weeks by H and E staining based analysis; type: organism-based; settings: in vivo, 336 h, dose 5-10 mg/kg
PC-12 [23] = experiment: Neuroprotective activity against corticosterone-induced cell injury in rat PC-12 cells assessed as increase in cell viability at 0.01 to 1 uM incubated for 24 hrs by CCK8 assay; type: functional, cell-based; settings: dose 0.01-1 µM
Mus musculus [24] = experiment: Antidepressant activity in chronic unpredictable mild stress induced depressive C57 mouse model assessed as increase in body weight at 5 to 10 mg/kg administered continuously for 2 weeks post 5 weeks of chronic unpredictable mild stress; type: functional, organism-based; settings: dose 5-10 mg/kg
[25] = Toxicity in C57 mouse assessed as necrosis in kidney at 5 to 10 mg/kg administered continuously for 2 weeks by H and E staining based analysis; type: organism-based; settings: in vivo, 336 h, dose 5-10 mg/kg
Danio rerio [26] = experiment: Antidepressant activity in reserpine-induced depressive zebrafish model assessed as increase in total distance traveled at 0.5 to 1 uM preadministered with reserpine for 40 mins followed by compound administration and measured after 7 days by open field test; type: functional, organism-based; settings: dose 0.5-1 µM, time 7.0 day
[27] = Toxicity in C57 mouse assessed as effect on lung size at 5 to 10 mg/kg administered continuously for 2 weeks by H and E staining based analysis; type: organism-based; settings: in vivo, 336 h, dose 5-10 mg/kg
Danio rerio [28] = experiment: Antidepressant activity in reserpine-induced depressive zebrafish model assessed as increase in speed of movement at 0.5 to 1 uM preadministered with reserpine for 40 mins followed by compound administration and measured after 7 days by open field test; type: functional, organism-based; settings: dose 0.5-1 µM, time 7.0 day
Mus musculus [29] = experiment: Antidepressant activity in chronic unpredictable mild stress induced depressive C57 mouse model assessed as increase in total distance traveled at 5 to 10 mg/kg administered continuously for 2 weeks post 5 weeks of chronic unpredictable mild stress by open field test; type: functional, organism-based; settings: dose 5-10 mg/kg
[30] = Toxicity in C57 mouse assessed as necrosis in liver at 5 to 10 mg/kg administered continuously for 2 weeks by H and E staining based analysis; type: organism-based; settings: in vivo, 336 h, dose 5-10 mg/kg
[31] = Toxicity in C57 mouse assessed as effect on kidney morphology at 5 to 10 mg/kg administered continuously for 2 weeks by H and E staining based analysis; type: organism-based; settings: in vivo, 336 h, dose 5-10 mg/kg
Mus musculus [32] = experiment: as §1, with “appearance of well arranged neuronal cells” for “reduction”, “hippocampus” for “MAO-A activity in brain”, “H and E staining based” for “colorimetric”; type: functional, organism-based; settings: dose 5-10 mg/kg
Danio rerio [33] = experiment: Antidepressant activity in reserpine-induced depressive zebrafish model assessed as increase in time spend in upper part at 0.5 to 1 uM preadministered with reserpine for 40 mins followed by compound administration and measured after 7 days by novel tank test; type: functional, organism-based; settings: dose 0.5-1 µM, time 7.0 day
[34] = Toxicity in C57 mouse assessed as effect on liver structure at 5 to 10 mg/kg administered continuously for 2 weeks by H and E staining based analysis; type: organism-based; settings: in vivo, 336 h, dose 5-10 mg/kg
[35] = Toxicity in C57 mouse assessed as necrosis in spleen at 5 to 10 mg/kg administered continuously for 2 weeks by H and E staining based analysis; type: organism-based; settings: in vivo, 336 h, dose 5-10 mg/kg

## O=C1c2ccccc2-c2nccc3cc(OCCCO[N+](=O)[O-])cc1c23
Danio rerio [1]
  Activity: Active
Mus musculus [2]
  Activity: 643.87 ng/mL
[3]
  Activity: Non-Toxic
[4]
  Activity: Non-Toxic
Danio rerio [5]
  Activity: Active
PC-12 [6]
  Activity: Active
Mus musculus [7]
  Activity: Active
[8]
  Activity: Non-Toxic
[9]
  Activity: Non-Toxic
[10]
  Activity: Non-Toxic
Mus musculus [11]
  Activity: Active
[12]
  Activity: Non-Toxic
Mus musculus [13]
  Activity: Active
[14]
  Activity: Non-Toxic
[15]
  Activity: Non-Toxic
[16]
  Activity: Non-Toxic
[17]
  IC50 at 24 h: > 10 µM
Mus musculus [18]
  Activity: Active
Mus musculus [19]
  Activity: Active
Danio rerio [20]
  Activity: Active
Mus musculus [21]
  Activity: Active
[22]
  Activity: Non-Toxic
PC-12 [23]
  Activity: Active
Mus musculus [24]
  Activity: Active
[25]
  Activity: Non-Toxic
Danio rerio [26]
  Activity: Active
[27]
  Activity: Non-Toxic
Danio rerio [28]
  Activity: Active
Mus musculus [29]
  Activity: Active
[30]
  Activity: Non-Toxic
[31]
  Activity: Non-Toxic
Mus musculus [32]
  Activity: Active
Danio rerio [33]
  Activity: Active
[34]
  Activity: Non-Toxic
[35]
  Activity: Non-Toxic
